Assay results as given in PMC6003569, “Novel fluorinated carbonic anhydrase IX inhibitors reduce hypoxia-induced acidification and clonogenic survival of cancer cells” (Oncotarget, 2018).
“Also recorded” adds a separate entry of the source. Where two headings read alike, the source gives them in different places.

Tests used:
[1] = tested on: HeLa cells; experiment: Extracellular acidification (pH) assay; assay type: cell-based, human; conditions: for hypoxia-induced extracellular acidification: hypoxia 0.2% O2, 72 h, 5–50 μM; for effect on extracellular acidification under normoxia: normoxia 21% O2, 72 h
[2] = tested on: H460 cells; experiment: alamarBlue cell viability assay; assay type: cell-based; conditions: Homo sapiens, NCI-H460, 72 h
Description: (§3) Cytotoxicity of inhibitors was determined by the alamarBlue® cell viability assay (Life Technologies). […] Briefly, cells were seeded in 96-well plates and allowed to attach overnight in normoxia. […] After 72 h, cells were incubated with 10% alamarBlue® for 2 h under normoxia at 37° C. The fluorescence signal was measured using the multi-mode microplate reader (FLUOstar® Omega, BMG Labtech) at 580 nm (excitation wavelength 540 nm). Response to treatments was quantified by evaluating EC50 values (concentration of inhibitor that leads to half-maximum viability response determined by Hill fit).

[3] = tested on: CA activity in hypoxic HeLa CA IX KO cells; experiment: CA catalytic activity via MS gas-analysis, CA IX knockout cells; assay type: cell-based, human; conditions: both HeLa CA IX KO lines
Description: The reaction sequence of ^18O loss from ^13C^18O^18O (m/z = 49) over the intermediate product ^13C^18O^16O (m/z = 47) and the end product ^13C^16O^16O (m/z = 45) was monitored with a quadrupole mass spectrometer (OmniStar GSD 320; Pfeiffer Vacuum, Asslar, Germany). The relative ^18O enrichment was calculated from the measured 45, 47, and 49 m/z abundance as a function of time according to: log enrichment = log (49×100/(49+47+45)). For the calculation of CA activity, the rate of ^18O depletion was obtained from the linear slope of the log enrichment over the time, using OriginPro 8.6 (OriginLab Corporation). The rate was compared with the corresponding rate of the non-catalyzed reaction. Enzyme activity in units (U) was calculated from these two values as defined by Badger and Price [59]. […] For every measurement, the non-catalyzed reaction was determined for 6 min in the presence of inhibitor, before cell suspension was added to the measuring cuvette and the catalyzed reaction was determined for 8 min. […] IC50 values were determined by Hill equation using OriginPro 8.6. To investigate specificity of the inhibitors in HeLa WT and HeLa CA IX KO cells, the non-catalyzed reaction was determined for 6 min in the absence of inhibitor, before a suspension of 5 × 10^6 cells was added to the measuring cuvette. […]

[4] = tested on: HeLa cells; experiment: alamarBlue cell viability assay; assay type: cell-based, human; conditions: 72 h; for EC50: Homo sapiens, HeLa
Description: as §3

[5] = tested on: A549 cells; experiment: alamarBlue cell viability assay; assay type: cell-based; conditions: Homo sapiens, A549, 72 h
Description: as §3

[6] = tested on: AsPC-1 cells; experiment: alamarBlue cell viability assay; assay type: cell-based; conditions: Homo sapiens, ASPC1, 48 h
Description: as §3

[7] = tested on: MDA-MB-231 cells; experiment: alamarBlue cell viability assay; assay type: cell-based; conditions: Homo sapiens, MDA-MB-231, 72 h
Description: as §3

[8] = target: T1, CA IX (Homo sapiens, UniProt Q16790); experiment: Stopped-flow CO2 hydration inhibition assay (SFA); assay type: biochemical; conditions: pH 7.5, 25° C, value in parentheses
T1 construct: 12 recombinant catalytic domains of human active CA isoforms as determined by FTSA
Description: (§1) The enzymatic activity of carbonic anhydrase isoforms and their inhibition was determined by the stopped-flow CO2 hydration assay where the formed acid was followed by the absorbance change of a pH indicator. The Applied Photophysics SX.18MV-R stopped-flow spectrometer was used to measure the absorbance change of Phenol-Red pH indicator at 557 nm. Saturated CO2 solution was prepared by bubbling the CO2 gas in MilliQ water at 25° C for 1 h. Experiments were performed at 25° C using 25 mM Hepes buffer containing 50 mM NaCl (pH 7.5), 0–10 μM compound with the final 0.4% (v/v) DMSO concentration. The final enzyme concentration was 10 nM for CA IX and 20 nM for CA XII. Raw curves of absorbance change were analyzed using Origin 8.1 (OriginLab Corporation) and the slope values were used to evaluate the rates of CO2 hydration. Spontaneous CO2 hydration rate was used as a zero value, while the CA catalyzed reaction rate - as a maximum value.

[9] = target: T2, CA XII (Homo sapiens, UniProt O43570); experiment: Stopped-flow CO2 hydration inhibition assay (SFA); assay type: biochemical; conditions: pH 7.5, 25° C, value in parentheses
T2 construct: 12 recombinant catalytic domains of human active CA isoforms as determined by FTSA
T2 sequence (O43570 30-289 limits assumed): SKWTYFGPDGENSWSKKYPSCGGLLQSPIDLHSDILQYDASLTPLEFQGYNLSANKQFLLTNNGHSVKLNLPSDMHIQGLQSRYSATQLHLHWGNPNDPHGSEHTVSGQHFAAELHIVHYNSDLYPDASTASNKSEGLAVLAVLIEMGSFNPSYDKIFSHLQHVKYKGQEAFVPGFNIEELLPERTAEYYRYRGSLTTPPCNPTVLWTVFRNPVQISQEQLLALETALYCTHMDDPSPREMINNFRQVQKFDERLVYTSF
Description: as §1

[10] = tested on: 4 investigated cell lines; experiment: Extracellular acidification (pH) assay, cell line panel; assay type: cell-based, human; conditions: 50 μM, hypoxia 0.2% O2, 72 h
Description: HeLa, H460, MDA-MB-231, and AsPC-1 cells were cultured in DMEM (Lonza) supplemented with 10% FBS (Lonza), whereas A549 cells were grown in-house made analogous medium differing only by a lower amount of sodium bicarbonate (final concentration 10 mM). Cell densities for each cell line were optimized to get ~100% confluence at the end of experiment under normoxic and hypoxic (0.2% O2) conditions upon vehicle (0.05% DMSO) treatment. Such conditions were necessary to obtain the highest possible level of CA IX-dependent extracellular acidification. Cells were plated in 6 cm dishes and allowed to attach overnight in normoxia. […] Results are shown as a difference between the pH of medium in the control plate (without seeded cells) and the pH of medium in the targeted plate (cells exposed to the compound or vehicle).

[11] = tested on: H460 spheroids; experiment: Clonogenic cell survival assay, 3D spheroids; assay type: cell-based, human; conditions: non-hypoxic (day 4) versus hypoxic (day 11) H460 spheroids, 5–15 μM, 24 h
Description: Clonogenic survival of HeLa cell monolayers was evaluated using cell densities applied in the extracellular acidification assay to determine the effect of inhibitors on the clonogenic cell survival while having the same acidification conditions. […] Then cells were trypsinized, reseeded in triplicate with known cell densities and allowed to form colonies for 14 days. […] Single cell suspensions were prepared and cells were plated in triplicate with known cell densities and allowed to form colonies for 14 days. […] Surviving fraction was normalized to vehicle (DMSO). To prepare plates for the growth of attachment-free H460 spheroids, autoclaved 1.5% w/v agarose (Sigma-Aldrich) was dispensed in the inner 60 wells of 96-well plates (50 μL/well) and left for polymerization at room temperature for 30 min. H460 cells were plated in modified 96-well plates to the surface of agarose menisci with a density of 500 cells/well. The DMEM was refreshed every two days. After 7 or 11 days in culture, spheroids were incubated with 20 μg/mL pimonidazole (PIMO, Hypoxyprobe-1, HP-1000, BioConnect) for 2 h at 37° C, collected and cryoconserved for immunofluorescence analysis (see below).

[12] = target: T1, CA IX; experiment: Fluorescent thermal shift assay (FTSA); assay type: binding; conditions: pH 7.0, 37° C
Description: (§2) The binding affinity of synthesized compounds to recombinant human CAs was measured by the fluorescent thermal shift assay (FTSA) where the thermal stabilization of the protein by the compound was determined by following the fluorescence dependence on temperature at various added compound concentrations. The melting temperature (Tm) of CA was measured using the Corbett Rotor-Gene 6000 instrument (QIAGEN Rotor-Gene Q, excitation at 365 ± 20 nm, emission detection at 460 ± 15 nm). The protein was heated from 25 to 99° C at a rate of 1° C/min and the fluorescence change of the solvatochromic dye 8-anilino-1-naphthalene sulfonate (ANS) was followed. The samples consisted of 5–10 μM CA, 0–200 μM ligand, 50 μM ANS, and 50 mM sodium phosphate buffer containing 100 mM NaCl at pH 7.0, with the final DMSO concentration of 2% (v/v). Protein unfolding profiles and the melting temperatures were determined at each ligand concentration while recording extrinsic fluorescence of ANS. Data analysis was performed as previously described. All experiments were repeated at least twice.

[13] = target: T3, CA III (Homo sapiens, UniProt P07451); experiment: Fluorescent thermal shift assay (FTSA); assay type: binding; conditions: pH 7.0, 37° C
T3 construct: 12 recombinant catalytic domains of human active CA isoforms as determined by FTSA
T3 sequence (P07451 3-259 limits assumed): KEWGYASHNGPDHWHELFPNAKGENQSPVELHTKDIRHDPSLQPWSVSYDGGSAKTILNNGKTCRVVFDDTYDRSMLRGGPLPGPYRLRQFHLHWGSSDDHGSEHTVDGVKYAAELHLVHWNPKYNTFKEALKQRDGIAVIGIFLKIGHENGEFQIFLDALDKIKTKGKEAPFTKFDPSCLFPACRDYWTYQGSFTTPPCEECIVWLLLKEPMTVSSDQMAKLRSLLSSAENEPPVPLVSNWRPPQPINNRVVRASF
Description: as §2

[14] = target: T4, CA IV (Homo sapiens, UniProt P22748); experiment: Fluorescent thermal shift assay (FTSA); assay type: binding; conditions: pH 7.0, 37° C
T4 construct: 12 recombinant catalytic domains of human active CA isoforms as determined by FTSA
T4 sequence (P22748 21-285 limits assumed): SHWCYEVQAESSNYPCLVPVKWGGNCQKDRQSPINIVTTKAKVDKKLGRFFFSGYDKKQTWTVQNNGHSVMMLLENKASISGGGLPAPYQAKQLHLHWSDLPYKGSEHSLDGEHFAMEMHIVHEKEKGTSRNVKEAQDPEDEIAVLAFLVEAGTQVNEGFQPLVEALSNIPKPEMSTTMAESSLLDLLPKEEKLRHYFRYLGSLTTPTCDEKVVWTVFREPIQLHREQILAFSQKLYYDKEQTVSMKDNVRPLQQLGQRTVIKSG
Description: as §2

[15] = target: T5, CA VA (Homo sapiens, UniProt P35218); experiment: Fluorescent thermal shift assay (FTSA); assay type: binding; conditions: pH 7.0, 37° C
T5 construct: 12 recombinant catalytic domains of human active CA isoforms as determined by FTSA
T5 sequence (P35218 39-296 limits assumed): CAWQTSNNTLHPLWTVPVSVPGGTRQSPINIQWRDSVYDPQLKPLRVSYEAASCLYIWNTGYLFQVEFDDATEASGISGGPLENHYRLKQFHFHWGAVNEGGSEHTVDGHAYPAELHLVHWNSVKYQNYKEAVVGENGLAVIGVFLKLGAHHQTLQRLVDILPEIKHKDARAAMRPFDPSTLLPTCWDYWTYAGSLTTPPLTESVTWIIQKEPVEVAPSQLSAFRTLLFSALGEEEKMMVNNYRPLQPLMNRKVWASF
Description: as §2

[16] = target: T6, CA XIV (Homo sapiens, UniProt Q9ULX7); experiment: Fluorescent thermal shift assay (FTSA); assay type: binding; conditions: pH 7.0, 37° C
T6 construct: 12 recombinant catalytic domains of human active CA isoforms as determined by FTSA
T6 sequence (Q9ULX7 20-278 limits assumed): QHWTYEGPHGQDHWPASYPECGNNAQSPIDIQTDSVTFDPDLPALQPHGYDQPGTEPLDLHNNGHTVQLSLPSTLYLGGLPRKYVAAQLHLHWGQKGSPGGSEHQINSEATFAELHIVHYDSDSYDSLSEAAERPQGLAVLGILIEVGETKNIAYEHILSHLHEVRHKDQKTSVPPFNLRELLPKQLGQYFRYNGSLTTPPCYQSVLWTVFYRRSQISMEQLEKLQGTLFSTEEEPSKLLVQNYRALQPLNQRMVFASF
Description: as §2

[17] = target: T7, CA XIII (Homo sapiens, UniProt Q8N1Q1); experiment: Fluorescent thermal shift assay (FTSA); assay type: binding; conditions: pH 7.0, 37° C
T7 construct: 12 recombinant catalytic domains of human active CA isoforms as determined by FTSA
T7 sequence (Q8N1Q1 4-261 limits assumed): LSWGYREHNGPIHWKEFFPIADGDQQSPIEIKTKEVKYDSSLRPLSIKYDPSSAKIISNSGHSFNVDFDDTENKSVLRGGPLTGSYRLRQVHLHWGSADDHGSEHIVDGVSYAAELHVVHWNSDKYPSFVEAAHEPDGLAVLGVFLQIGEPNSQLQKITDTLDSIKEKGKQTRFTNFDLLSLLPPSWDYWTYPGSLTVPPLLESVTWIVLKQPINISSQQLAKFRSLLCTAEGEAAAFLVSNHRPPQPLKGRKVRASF
Description: as §2

[18] = target: T8, CA I (Homo sapiens, UniProt P00915); experiment: Fluorescent thermal shift assay (FTSA); assay type: binding; conditions: pH 7.0, 37° C
T8 construct: 12 recombinant catalytic domains of human active CA isoforms as determined by FTSA
T8 sequence (P00915 4-261 limits assumed): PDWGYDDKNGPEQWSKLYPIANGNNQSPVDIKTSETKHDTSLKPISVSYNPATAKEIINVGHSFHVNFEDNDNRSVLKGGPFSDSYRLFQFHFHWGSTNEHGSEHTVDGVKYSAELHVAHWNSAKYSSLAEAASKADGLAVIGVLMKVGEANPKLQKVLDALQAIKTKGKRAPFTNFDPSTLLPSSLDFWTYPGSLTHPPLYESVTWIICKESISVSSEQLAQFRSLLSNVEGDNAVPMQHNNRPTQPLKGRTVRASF
Description: as §2

[19] = target: T9, CA VB (Homo sapiens, UniProt Q9Y2D0); experiment: Fluorescent thermal shift assay (FTSA); assay type: binding; conditions: pH 7.0, 37° C
T9 construct: 12 recombinant catalytic domains of human active CA isoforms as determined by FTSA
T9 sequence (Q9Y2D0 37-296 limits assumed): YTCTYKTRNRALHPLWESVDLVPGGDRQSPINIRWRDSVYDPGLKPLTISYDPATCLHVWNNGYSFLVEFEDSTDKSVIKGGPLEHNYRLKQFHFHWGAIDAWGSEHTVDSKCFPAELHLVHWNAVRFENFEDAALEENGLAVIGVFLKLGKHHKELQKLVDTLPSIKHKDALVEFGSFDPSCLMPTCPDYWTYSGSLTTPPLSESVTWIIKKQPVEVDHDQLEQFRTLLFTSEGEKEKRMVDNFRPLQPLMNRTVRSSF
Description: as §2

[20] = target: T2, CA XII; experiment: Fluorescent thermal shift assay (FTSA); assay type: binding; conditions: pH 7.0, 37° C
Description: as §2

[21] = target: T10, CA II (Homo sapiens, UniProt P00918); experiment: Fluorescent thermal shift assay (FTSA); assay type: binding; conditions: pH 7.0, 37° C
T10 construct: 12 recombinant catalytic domains of human active CA isoforms as determined by FTSA
Description: as §2

[22] = target: T11, CA VII (Homo sapiens, UniProt P43166); experiment: Fluorescent thermal shift assay (FTSA); assay type: binding; conditions: pH 7.0, 37° C
T11 construct: 12 recombinant catalytic domains of human active CA isoforms as determined by FTSA
T11 sequence (P43166 5-262 limits assumed): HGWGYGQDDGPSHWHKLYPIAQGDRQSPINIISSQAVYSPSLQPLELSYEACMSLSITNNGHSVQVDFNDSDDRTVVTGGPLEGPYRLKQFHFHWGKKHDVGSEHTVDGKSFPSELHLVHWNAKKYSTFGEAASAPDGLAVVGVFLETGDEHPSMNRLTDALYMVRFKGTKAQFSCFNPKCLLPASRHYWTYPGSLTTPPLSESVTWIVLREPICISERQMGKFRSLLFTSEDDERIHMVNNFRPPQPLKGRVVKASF
Description: as §2

[23] = target: T12, CA VI (Homo sapiens, UniProt P23280); experiment: Fluorescent thermal shift assay (FTSA); assay type: binding; conditions: pH 7.0, 37° C
T12 construct: 12 recombinant catalytic domains of human active CA isoforms as determined by FTSA
T12 sequence (P23280 21-278 limits assumed): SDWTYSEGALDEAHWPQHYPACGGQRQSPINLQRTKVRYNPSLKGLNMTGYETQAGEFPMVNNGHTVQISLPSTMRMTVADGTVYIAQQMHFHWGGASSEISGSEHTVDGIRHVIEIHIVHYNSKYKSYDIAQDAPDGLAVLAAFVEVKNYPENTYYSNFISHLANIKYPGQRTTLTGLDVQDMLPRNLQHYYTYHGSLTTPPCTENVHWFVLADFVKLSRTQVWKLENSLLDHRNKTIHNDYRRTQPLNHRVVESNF
Description: as §2

[24] = tested on: AsPC-1 cells; experiment: Extracellular acidification (pH) assay; assay type: cell-based, human; conditions: AsPC-1, hypoxia 0.2% O2, 72 h
[25] = tested on: H460 cells; experiment: Extracellular acidification (pH) assay; assay type: cell-based, human; conditions: H460, hypoxia 0.2% O2, 72 h
[26] = tested on: extracellular CA in intact hypoxic MDA-MB-231 cells; conditions: 1 μM; cited from earlier work
[27] = H460, 0.2% O2 (hypoxia), read-out: EC50
[28] = H460, 21% O2 (normoxia), read-out: EC50
[29] = 0.2% O2 (hypoxia), read-out: EC50
[30] = 21% O2 (normoxia), read-out: EC50

Structure (SMILES)	hypoxia-induced extracellular acidification [1]	effect on extracellular acidification under normoxia [1]	EC50 [2, 27] [µM]	EC50 [2, 28] [µM]	Ki [8] [µM]	EC50 [4, 29] [µM]	EC50 [4, 30] [µM]	Kd [12] [µM]	Kd [13] [µM]	Kd [14] [µM]	Kd [15] [µM]	Kd [16] [µM]	Kd [17] [µM]	Kd [18] [µM]	Kd [19] [µM]	Kd [20] [µM]	Kd [21] [µM]	Kd [22] [µM]	Kd [23] [µM]	further results
NS(=O)(=O)c1c(F)c(F)c(SCCO)c(F)c1NC1CCCCCCC1 [VD12-09]	significantly (p < 0.05) reduced	negligible	–	–	–	–	–	–	–	–	–	–	–	–	–	–	–	–	–	EC50 ([2]; H460, 0.2% O2 (hypoxia)): 37 ± 7.6 µM; EC50 ([2]; H460, 21% O2 (normoxia)): 17.8 ± 2.2 µM; CA activity after addition of inhibitor ([3]; 30 μM): did not alter CA activity; EC50 ([4]; 0.2% O2 (hypoxia)): 46.9 ± 7 µM; EC50 ([4]; 21% O2 (normoxia)): 21.6 ± 4.1 µM; EC50 ([5]; A549, 0.2% O2 (hypoxia)): 98.8 ± 8.5 µM; EC50 ([5]; A549, 21% O2 (normoxia)): 33.8 ± 2.5 µM; EC50 ([6]; AsPC-1, 0.2% O2 (hypoxia)): 83.3 ± 5.8 µM; EC50 ([6]; AsPC-1, 21% O2 (normoxia)): 100 ± 20 µM; EC50 ([7]; MDA-MB-231, 0.2% O2 (hypoxia)): 67.6 ± 7.1 µM; EC50 ([7]; MDA-MB-231, 21% O2 (normoxia)): 55.4 ± 6.6 µM
NS(=O)(=O)c1c(F)c(F)c(SCCc2ccc(C(=O)O)cc2)c(F)c1NC1CCCCCCCCCCC1 [VR16-09, 4-(2-{[4-(Aminosulfonyl)-3-(cyclododecylamino)-2,5,6-tetrafluorophenyl]thio}ethyl)benzoic acid]	significantly (p < 0.05) reduced	negligible	40 ± 9.6	19.3 ± 3.6	< 0.001	40.8 ± 9.6	20.2 ± 4.3	0.00016	≥ 200	≥ 200	≥ 200	0.17	0.02	≥ 200	45	0.71	≥ 200	37	≥ 200	Ki [9]: 0.1 µM; CA activity after addition of inhibitor ([3]; 300 nM): did not alter CA activity; EC50 ([5]; A549, 0.2% O2 (hypoxia), read-out: EC50): 76.7 ± 2.9 µM; EC50 ([5]; A549, 21% O2 (normoxia), read-out: EC50): 17 ± 1 µM; hypoxia-induced acidosis [10]: significantly reduced; clonogenic survival of cells derived from spheroids [11]: hypoxia-dependent effect on clonogenic survival; EC50 ([6]; AsPC-1, 0.2% O2 (hypoxia), read-out: EC50): 160 ± 17 µM; EC50 ([6]; AsPC-1, 21% O2 (normoxia), read-out: EC50): 153 ± 23 µM; EC50 ([7]; MDA-MB-231, 0.2% O2 (hypoxia), read-out: EC50): 84.2 ± 4.9 µM; EC50 ([7]; MDA-MB-231, 21% O2 (normoxia), read-out: EC50): 74.2 ± 3.8 µM; hypoxia-induced acidosis [24]: increased
NS(=O)(=O)c1c(F)c(F)c(SCCc2ccc(C(=O)O)cc2)c(F)c1NC1CCCCCCC1 [VR16-10, 4-(2-{[4-(Aminosulfonyl)-3-(cyclooctylamino)-2,5,6-tetrafluorophenyl]thio}ethyl)benzoic acid]	–	–	> 150	83.3 ± 15.3	< 0.001	> 150	93.3 ± 5.8	0.0002	≥ 200	1.82	5	0.17	0.04	5	0.1	0.37	1	0.1	26.3	hypoxia-induced extracellular acidification [25]: Dose-dependent reduction; also recorded: smallest, albeit significant (p < 0.05), impact; Cytotoxic ratio (CR) of selectivity to hypoxia ([4]; human, HeLa cells): > 0.62
CC(=O)Nc1nnc(S(N)(=O)=O)s1 [acetazolamide]	–	–	–	–	–	–	–	–	–	–	–	–	–	–	–	–	–	–	–	Extracellular CA activity [26]: significantly reduced
